Like-named read-outs stand apart in the source and are kept apart here.
What was measured:
[1] = test system: HIV-1 (HTLVIIIB) in TK-deficient CEM T-cells; assay: Inhibition of HIV-1 replication in TK-deficient CEM T-cells (p24 / RT activity); format: cell-based
Procedure: (§1) Percent inhibition of viral replication was calculated by comparing the p24 and RT activity values from the test substance-treated infected cells with those from untreated infected cells. In parallel, the cytotoxicity of the compounds was examined using a microculture tetrazolium assay (MTA) of cell proliferation, as described.in the Zarling, Enrice, and Uckun articles Supra).
(§2) Cellular Assays of Anti-HIV Activity and Cytotoxicity. […] Percent viral inhibition was calculated by comparing the RT activity values from the test substance-treated infected cells with RT values from untreated infected cells (i.e., virus controls).

[2] = test system: HIV-1 RT-MDR (NRTI-resistant, NNRTI-resistant); assay: p24 antigen assay, RT-MDR strain; format: cell-based
[3] = test system: HIV-1 A17-variant (Y181C+K103N mutant, NNRTI-resistant); assay: p24 antigen assay, A17-variant strain in PBMC; format: cell-based; conditions: Human immunodeficiency virus 1, PBMC
Excerpt: (§3) In vitro assays of anti-HIV-1 activity.
(§4) Viruses. 20 primary clinical isolates with genotypic and/or phenotypic NRTI-resistance (isolated in the laboratory of D. Richman) and 10 clinical isolates with phenotypic stavudine (d4T) resistance (obtained through the AIDS Research and Reference Reagent Program, NIAID) were used in the current study. The HIV-1 strains HTLVIIIB (wildtype RT, NRTI-sensitive, NNRTI-sensitive), A17 (Y181 C mutant, NNRTI-resistant), A17-variant (Y181C+K103N mutant, NNRTI-resistant), and RT-MDR (M41 L, V106N, T215Y; NRTI-resistant, NNRTI-resistant) were also obtained from the AIDS Research and Reference Reagent Program, NIAID.
(§5) Antiviral susceptibility assays.

in vitro [4] = conditions: human
Procedure: as §1, §2
(§6) Antiviral susceptibility assays. Phenotypic drug susceptibility studies of HIV-1 isolates and strains were performed by measuring the production of the p24 gag protein in peripheral blood mononuclear cells (PBMC) from seronegative healthy volunteers in the presence of increasing concentrations of the anti-HIV agent using the quantitative Coulter HIV-1 p24 antigen ezyme immunoassay (EIA) and HIV-1 p24 Antigen Kinetic Standard (Beckman Coulter), as previously described (Uckun, 1998, Antimicrobial Agents and Chemotherapy 37(4): 835-38). Informed consent was obtained from the blood donors according to DHHS guidelines using consent forms approved by the Institutional Review Board. In brief, PBMC were cultured for 72 h in RPMI 1640 medium (Gibco) supplemented with 20% (vol/vol) heat-inactivated fetal bovine serum, 5% human interleukin-2 (Zeptometrix), 2 mM L-glutamine, 25 mM HEPES, 2 g/L NaHCO3, 100 U/ml penicillin/streptomycin (Gibco), 50 μg/ml gentamicin (Gibco), and 5 μg/ml phytohemagglutinin-P (PHA-P) (Sigma) for 24-72 hours prior to exposure to HIV at a multiplicity of infection of 0.001-0.1 during a 1-h adsorbtion period at 37±1° C. in a humidified 5-7% CO2 atmosphere. Subsequently, cells were cultured in 96-well microtiter plates (100 μl/well; 2×10^6 cells/ml, triplicate wells) in the presence of the anti-HIV agents at 6-7 different concentrations ranging from 0.0001 μM to 100 μM, and 25 μL aliquots of culture supernatants were removed from the wells on day 6 after infection for p24 EIA, as previously described (Uckun, 1998, Antimicrobial Agents and Chemotherapy, 37(4):835-38). Controls included uninfected and untreated cells (background control) and infected but untreated (virus control) cells. The p24 EIA utilizes a murine monoclonal antibody to HIV core protein used to coat microwell strips to which the antigen present in the test culture supernatant samples binds. Percent inhibition of viral replication was calculated by comparing the p24 values from the test substance-treated infected cells with p24 values from untreated infected cells (i.e., virus controls). The IC50 values were determined using the Statview statistics program (SAS Institute, Inc.). In parallel, the effects of various treatments on cell viability were also examined as previously described (Uckun, 1998, Antimicrobial Agents and Chemotherapy, 42:383-388). In brief, noninfected PBMC were treated with each compound for 5 days under identical experimental conditions. A microculture tetrazolium assay (MTA) was performed to quantitate cellular proliferation (Uckun, 1998, Antimicrobial Agents and Chemotherapy, 42:383-388).
In parallel, the cytotoxicity of the compounds was examined using a microculture tetrazolium assay (MTA) of cell proliferation, as described (in the Zarling, Enrice, and Uckun articles Supra).

in vitro [5] = conditions: human; remark: listed apart in the source
Procedure: as §1, §2

HIV-1 (strain: HTLVIIIB) = assay: microbe, parasite or virus in culture; format: cell-based
Procedure: as §1, §2

[6] = test system: HIV-1 A17 (Y181C mutant, NNRTI-resistant); assay: p24 antigen assay, A17 strain in PBMC; format: cell-based; conditions: Human immunodeficiency virus 1, PBMC
Excerpt: as §3, §4, §5

[7] = test system: Zidovudine-Sensitive Primary Clinical HIV-1 Isolates; assay: p24 drug susceptibility assay, zidovudine-sensitive primary clinical HIV-1 isolates in PBMC; format: cell-based; conditions: Human immunodeficiency virus 1, PBMC
Procedure: as §6
Phenotypic drug susceptibility studies of HIV-1 isolates and strains were performed by measuring the production of the p24 gag protein in peripheral blood mononuclear cells (PBMC) from seronegative healthy volunteers in the presence of increasing concentrations of the anti-HIV agent using the quantitative Coulter HIV-1 p24 antigen enzyme immunoassay (EIA) and HIV-1 p24 Antigen Kinetic Standard (Beckman Coulter), as previously described. StatView was used in the calculation of the IC50 values from each set of triplicate wells using the linearized form of an exponential equation (lnY=lnb0+b1X; where Y=% inhibition, X=drug concentration). The inhibition constants were log10 transformed to homogenize the variances within each group. […] P-values below 0.05 were deemed significant (JMP Software, SAS).

[8] = Human immunodeficiency virus 1, CCRF-CEM, TK-deficient CEM cells, read-out: IC50 value for inhibition of RT activity
[9] = Human immunodeficiency virus 1, T-cell, TK-deficient CEM T-cells, Table 5, read-out: CEM IC50 [RT]
[10] = Human immunodeficiency virus 1, RT-MDR(Con) control strain (M41L, L74V, T215Y, V106N)
[11] = Human immunodeficiency virus 1, read-out: IC50 RTMDR, p24
[12] = read-out: IC50, μM (p24), Mean ± SE, mean over 10 zidovudine-sensitive clinical isolates
[13] = read-out: IC50, μM (p24), isolate 92BR025 (C/C, Brazil), PBMC
[14] = read-out: IC50, μM (p24), isolate 92RW008 (—/A, Rawanda), PBMC
[15] = read-out: IC50, μM (p24), isolate 93BR019 (—/BF, Brazil), PBMC
[16] = read-out: IC50, μM (p24), isolate 93BR020 (F/F, Brazil), PBMC
[17] = read-out: IC50, μM (p24), isolate 93BR029 (F/B, Brazil), PBMC
[18] = read-out: IC50, μM (p24), isolate 93IN101 (—/C, India), PBMC
[19] = read-out: IC50, μM (p24), isolate HIV-1G3 (—/G, Nigeria), PBMC
[20] = read-out: IC50 range, range over 10 zidovudine-sensitive clinical isolates
[21] = Human immunodeficiency virus 1, CCRF-CEM, TK-deficient CEM cells, read-out: IC50 value for inhibition of p24 production
[22] = Human immunodeficiency virus 1, T-cell, TK-deficient CEM, unit not printed in Table 2 (0.556 = 556 nM), read-out: IC50 [p24]
[23] = Human immunodeficiency virus 1, T-cell, TK-deficient CEM, unit not printed in Table 2 (2.355 = 2355 nM), read-out: IC50 [RT]
[24] = Human immunodeficiency virus 1, MT2, laboratory strain RT-MDR (V106N), MT-2 cells, Table 14
[25] = Human immunodeficiency virus 1, PBMC, read-out: IC50 value for inhibition of RT activity, peripheral blood mononuclear cells
[26] = Human immunodeficiency virus 1, read-out: IC50 [RT], PBMNC, unit not printed in Table 2 (0.040 = 40 nM)
[27] = Human immunodeficiency virus 1, read-out: IC50 [p24], PBMNC, unit not printed in Table 2 (0.018 = 18 nM)
[28] = Human immunodeficiency virus 1, read-out: PBMNC IC50 [RT], PBMNC, unit not given in Table 5 (0.04 = 40 nM)
[29] = primary isolate RW/92/8 (V179I), Table 14
[30] = read-out: IC50, μM (p24), isolate 92BR003 (B/B, Brazil), PBMC
[31] = read-out: IC50, μM (p24), isolate 92RW016 (subtype A/A, Rawanda), PBMC
[32] = read-out: IC50, μM (p24), isolate HIV-1JV1083 (—/G, Nigeria), PBMC

SMILES	IC50 [1, 8] [nM]	IC50 [1, 9] [nM]	IC50 [2, 10] [nM]	IC50 [2, 11] [nM]	IC50 ([3]; read-out: IC50 A17V) [nM]	CC50 at 5 days (in vitro [4]; CC50, μM) [µM]	IC50 ([6]; read-out: IC50 A17) [nM]	IC50 [7, 12] [µM]	IC50 [7, 13] [µM]	IC50 [7, 14] [µM]	IC50 [7, 15] [µM]	IC50 [7, 16] [µM]	IC50 [7, 17] [µM]	IC50 [7, 18] [µM]	IC50 [7, 19] [µM]	IC50 [7, 20] [µM]	IC90 ([7]; read-out: IC90 mean ±SE) [nM]	IC90 ([7]; read-out: IC90 range) [nM]	IC50 [1, 21] [nM]	IC50 [1, 22] [nM]	also measured
Cc1cn([C@H]2C[C@H](N=[N+]=[N-])[C@@H](CO)O2)c(=O)[nH]c1=O [AZT, 3′-azido-3′-deoxythymidine]	200	200	> 10000	68	0.005	95.6 ± 2.9	0.055	0.004 ± 0.001	0.004	0.002	0.002	0.002	0.007	0.001	0.01	0.001 to 0.01	50 ± 10	11 to 90	–	–	CC50 at 5 days (in vitro [4]; CC50): 0.0527 µM; IC50 at 5 days (in vitro [4]; PBMNC IC50 [MTA]): > 10000 nM; IC50 (in vitro [5]; CEM IC50 [MTA]): > 10000 nM; IC50 (HIV-1 (strain: HTLVIIIB); Human immunodeficiency virus 1, PBMC, peripheral blood mononuclear cells, read-out: IC50 value for inhibition of RT activity): 3 nM; IC50 (HIV-1 (strain: HTLVIIIB); Human immunodeficiency virus 1, PBMNC, unit not given in Table 5 (0.04 = 40 nM), read-out: PBMNC IC50 [RT]): 3 nM
COC(=O)C(C)NP(=O)(OC[C@@H]1C=C[C@H](n2cc(C)c(=O)[nH]c2=O)O1)Oc1ccc(Br)cc1 (stereo partly drawn) [Compound 1c, d4T-5′-[p-bromo-phenylmethoxyalaninyl phosphate]]	57	60	< 1	20 to 60	47 ± 27	–	36 ± 21	0.002 ± 0.001	0.001	0.0008	0.0008	0.007	0.0008	0.0005	0.0005	–	–	–	44	44	IC50 [1, 23]: 57 nM; IC50 [2, 24]: < 1 nM; IC50 ([2]; read-out: IC50 RTMDR, p24): 21 ± 12 nM; IC50 [3]: < 1 nM; CC50 at 5 days (in vitro [4]): > 100 µM; IC50 at 5 days (in vitro [4]): > 10000 nM; IC50 (in vitro [5]): > 10000 nM; IC50 (HIV-1 (strain: HTLVIIIB); [25]): 42 nM; IC50 (HIV-1 (strain: HTLVIIIB); [26]): 42 nM; IC50 (HIV-1 (strain: HTLVIIIB); [27]): 22 nM; IC50 (HIV-1 (strain: HTLVIIIB); [28]): 40 nM; IC50 [6]: < 1 nM; IC50 [7, 29]: 0.0008 µM; IC50 [7, 30]: 0.0006 µM; IC50 [7, 31]: 0.003 µM; IC50 [7, 32]: 0.001 µM
Cc1cn([C@H]2C=C[C@@H](CO)O2)c(=O)[nH]c1=O [d4T, 2′,3′-didehydro-2′,3′-dideoxythymidine]	2360	2400	–	–	–	4.5 ± 1.7	–	0.24 ± 0.07	0.4	0.2	0.2	0.2	0.8	0.1	0.1	0.1 to 0.8	6380 ± 3890	1000 to 40900	556	556	IC50 [1, 23]: 2360 nM; IC50 ([1]; Human immunodeficiency virus 1, T-cell, read-out: CEM IC50 [RT], TK-deficient CEM T-cells, Table 4): 2340 nM; IC50 at 5 days (in vitro [4]; IC50 [MTA]): > 10000 nM; IC50 (in vitro [5]; IC50 [MTA]): > 10000 nM; IC50 (HIV-1 (strain: HTLVIIIB); [25]): 40 nM; IC50 (HIV-1 (strain: HTLVIIIB); Human immunodeficiency virus 1, PBMC, read-out: IC50 value for inhibition of p24 production, peripheral blood mononuclear cells): 18 nM; IC50 (HIV-1 (strain: HTLVIIIB); [26]): 40 nM; IC50 (HIV-1 (strain: HTLVIIIB); [27]): 18 nM; IC50 (HIV-1 (strain: HTLVIIIB); Human immunodeficiency virus 1, read-out: PBMNC IC50 [RT], PBMNC, Table 4): 4 nM; IC50 (HIV-1 (strain: HTLVIIIB); [28]): 40 nM; IC50 [7, 30]: 0.1 µM; IC50 [7, 31]: 0.1 µM; IC50 [7, 32]: 0.2 µM
Cc1ccnc2c1NC(=O)c1cccnc1N2C1CC1 [nevirapine]	–	–	–	–	–	–	–	–	–	–	–	–	–	–	–	–	–	–	–	–	IC50 [2, 24]: 18000 ± 8000 nM; IC50 [3]: 32000 ± 7000 nM; CC50 at 5 days (in vitro [4]; PBMC or MT-2 cells, CC50 values, data not shown): > 100 µM; CC50 at 5 days (in vitro [4]; peripheral blood mononuclear cells (PBMC), CC50, μM, viability of PBMC): 5.1 ± 2.3 µM; IC50 [6]: 47000 ± 7000 nM; IC50 [7, 29]: 0.1 µM

Source: patent publication US20070015733A1, “Aryl Phosphate Derivatives of d4T having Activity Against Resistant HIV Strains” (Parker Hughes Institute, priority 1998, published 2007)
